The source of these data is US11136325B2, “Pyrrolopyrimidine and pyrrolopyridine derivatives” (GALAPAGOS NV, priority 2017, dated 2021).

“Also recorded” adds a separate entry of the source.

The test system of assay [1] is CFA induced hypersensitivity in rat. Briefly: CFA induced hypersensitivity in rat assessed using weight bearing method. Conditions: 10 mg/kg, 24 hours post CFA, 1, 2 and 4 hours post treatment. It counts as in vivo. From the text:
Intraplantar injection of Complete Freunds adjuvant (CFA) causes an inflammatory reaction which induces hypersensitivity and oedema, and mimics some aspects of clinical inflammatory pain. These effects can be investigated using equipment to measure weight bearing and plethysmometer.
Naive rats distribute their body weight equally between the two hind paws. However, when the injected (left) hind paw is inflamed and/or painful, the weight is re-distributed so that less weight is put on the affected paw (decrease in weight bearing on injured paw). Weight bearing through each hind limb was measured using a rat incapacitance tester (Linton Instruments, UK).
Rats were placed in the incapacitance tester with the hind paws on separate sensors and the average force exerted by both hind limbs was recorded over 4 seconds.
Base line weight bearing and paw volume readings were taken and hypersensitivity was induced via injection of CFA (Baseline weight bearing and paw volume recordings were taken prior to induction of insult. Inflammatory hypersensitivity was induced by intraplantar injection of CFA (100 μL of 1 mg/mL solution) intraplantar to the rats left hind paw.
Animals (Male, Sprague Dawley Rats (Charles River, UK), 212-260 g) were ranked and randomised to treatment groups according to the weight bearing CFA window in a Latin square design. […]

The subject of assay [2] is MIA induced hyperalgesia in the rat. Briefly: MIA induced hyperalgesia in the rat, in vivo chronic pain model (weight bearing). Conditions: 10 mg/kg p.o. daily day 3 to day 16, vs vehicle. From the text: Intra-articular administration of Monosodium Iodoacetate (MIA) in the ipsilateral knee of Sprague Dawley rats leads to development of a robust and long-lasting hyperalgesia and allodynia associated initially with an inflammatory response.
Naive rats distribute their body weight equally between the two hind paws. However, when the injected (left) hind knee is inflamed and/or painful, the weight is re-distributed so that less weight is put on the affected limb (decrease in weight bearing on injured limb). Weight bearing through each hind limb is measured using a rat incapacitance tester (Linton Instruments, UK).
Osteoarthritis (OA) in rats ((Sprague Dawley, male, groups of 10) was induced via injection of MIA solution (Sigma, 12512), 25 μL of 80 mg/mL, (2 mg) into the knee joint of the left hind leg. Weight bearing was assessed on Days 3, 5, 7, 9, 12 & 16, following injection of MIA, for development of chronic pain. At Day 3 weight bearing measurements were taken and animals were ranked and randomised to treatment groups according to their MIA window in a Latin square design. […]
Weight bearing (g) readings were taken for both right and left hind paws and the difference calculated. Data are expressed as % ratio ipsilateral/contralateral ((WB left/WB right)*100) (mean±s.e.m.)
Calculation: Ipsilateral reading/contralateral reading x 100. […]

Assay [3] relates to CDAHFD diet-induced NASH in C57/BL6 mice. As to the kind of experiment: Diet-induced (CDAHFD) mouse model of non-alcoholic steatohepatitis (NASH). Format: in vivo. Conditions: mouse liver. The source says:
This model uses a choline-deficient, L-amino acid-defined, high-fat diet (CDAHFD) consisting of 60 kcal % fat and 0.1% methionine to induce NASH.
C57/BL6 mice (Charles River) are divided into groups as set out below, the mice are 8 weeks (>20 grs) at the initiation of the induction phase.
• CDAHFD; Research Diets Inc., Ref. No. A06071302 • Control diet: normal diet (VRF 1, P), Special Diets Services
In order to induce a non-alcoholic steatohepatitis (NASH), animals will be fed with choline-deficient, L-amino acid-defined, high-fat diet (CDAHFD).
Mice were randomly assigned to a treatment group and treated according to schedule presented in the Table above until the evaluation phase.
Steady state PK sampling—Blood will be collected in K2-EDTA tubes to generate plasma. All blood samples will be processed for plasma by centrifugation (5,000 rpm for 10 minutes at 4° C.) within 30 minutes of collection. Plasma from each blood sample will be quickly frozen in liquid nitrogen and stored in a freezer maintained at −80° C. until analysis.
Final blood sample—Blood will be collected in tubes for serum preparation containing protease inhibitors. All blood samples will be processed by centrifugation (3,500 rpm for 15 minutes at 4° C.). Aliquots of obtained serum samples will be stored frozen at −80° C. until further analysis.
Tissue samples: The liver is harvested and portions of the left lateral lobe are stored for RNA gene expression analysis, TG assay, sectioned for OH proline measurement, and the rest placed in 10% formalin for histopathological evaluation. Histopathological evaluation includes sections stained with Sirius red to evaluate extent of fibrosis, and sections stained with F4/80 to assess macrophage accumulation.
A panel of 6 fibrosis genes (Col1A1, Timp1, Pai1, CTGF, TGFβ and Acta2), inflammation genes (TNFα, IL10 and CCL2) and 2 house keeping genes are used for gene expression analysis.

Regarding `Cc1c[nH]c2ncnc(N3CCC(NC(=O)c4cc(N)ncc4F)CC3)c12` [Compound 1, 2-amino-5-fluoro-N-[1-(5-methyl-7H-pyrrolo[2,3-d]pyrimidin-4-yl)-4-piperidyl]pyridine-4-carboxamide], in assay [1], the “hypersensitivity response (weight bearing)” value was “significantly inhibited”. For the same compound, the “reversal of hypersensitivity (weight bearing)” value in assay [2] is “significant and marked reversal; also recorded: significant reversal when compared to vehicle at each time point”. The F4/80 quantification result in assay [3] (day 73, 15 mg/kg/BID) is reported as “significant effect”. Moreover, in assay [3] (day 73, 15 mg/kg/QD and 15 mg/kg/BID), the “Sirius red fibrosis quantification” value is “significant effect”. The “expression levels of Pai1 (fibrosis gene panel)” value in assay [3] (day 73, at least the highest doses tested (5 mg/kg/QD, 15 mg/kg/QD, 15 mg/kg/BID p.o.), vs CDAHFD diet+vehicle) is given as “significant effect”. Also, in assay [3] (day 73, at least the highest doses tested, vs CDAHFD diet+vehicle), the “expression levels of TGF (fibrosis gene panel)” value was “significant effect”.
